Here are results for 31 compounds from patent US20150344457A1, “METHODS OF INHIBITING PRMT5” (EPIZYME, INC., priority 2012, published 2015).

The target in this assay is T1, PRMT5/MEP50 (Homo sapiens, UniProt O14744).
T1 construct: Expressed full-length human Flag-PRMT5/6His-MeP50 protein complex was purified; made in house; host or cells: Spodoptera frugiperda (SF9) insect cells, baculovirus (pDEST8)
Nature of the assay: PRMT5 Biochemical Assay (PRMT5/MEP50 enzyme assay on peptide substrate, 3H-SAM Flashplate). The conditions noted are these: read-out: Biochemical IC50.

[1] abbreviates: Table B-2, PRMT5/MEP50 4 nM, 3H-SAM 75 nM, peptide 40 nM.
The mark [2] stands for this setting: PRMT5 biochemical assay, Table C-2.
Setting [3] is: Table A-2, PRMT5/MEP50 4 nM, 3H-SAM 75 nM, peptide 40 nM.

Like-named read-outs stand apart in the source and are kept apart here. A value given as a limit tells only on which side of the number the result lay.

T1 sequence (O14744 with tags, fused parts or gaps): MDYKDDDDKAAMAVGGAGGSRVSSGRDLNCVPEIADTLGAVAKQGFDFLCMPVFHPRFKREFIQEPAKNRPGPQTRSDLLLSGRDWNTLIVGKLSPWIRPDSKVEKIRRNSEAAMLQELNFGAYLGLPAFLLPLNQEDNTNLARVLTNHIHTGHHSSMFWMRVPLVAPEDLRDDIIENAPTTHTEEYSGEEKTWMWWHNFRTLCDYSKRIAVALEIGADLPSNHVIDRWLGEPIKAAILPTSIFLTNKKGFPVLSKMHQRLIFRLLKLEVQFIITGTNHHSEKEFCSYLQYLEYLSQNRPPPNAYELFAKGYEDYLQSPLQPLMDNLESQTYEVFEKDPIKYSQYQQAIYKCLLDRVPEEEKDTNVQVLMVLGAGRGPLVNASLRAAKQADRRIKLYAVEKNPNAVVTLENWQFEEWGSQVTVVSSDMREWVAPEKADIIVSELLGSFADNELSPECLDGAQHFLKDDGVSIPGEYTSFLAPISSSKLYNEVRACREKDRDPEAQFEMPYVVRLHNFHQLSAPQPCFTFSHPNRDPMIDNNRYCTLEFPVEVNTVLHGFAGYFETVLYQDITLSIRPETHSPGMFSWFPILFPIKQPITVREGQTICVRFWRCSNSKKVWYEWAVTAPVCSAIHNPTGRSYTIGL
T1 sequence (Q9BQA1 with tags, fused parts or gaps partner limits assumed): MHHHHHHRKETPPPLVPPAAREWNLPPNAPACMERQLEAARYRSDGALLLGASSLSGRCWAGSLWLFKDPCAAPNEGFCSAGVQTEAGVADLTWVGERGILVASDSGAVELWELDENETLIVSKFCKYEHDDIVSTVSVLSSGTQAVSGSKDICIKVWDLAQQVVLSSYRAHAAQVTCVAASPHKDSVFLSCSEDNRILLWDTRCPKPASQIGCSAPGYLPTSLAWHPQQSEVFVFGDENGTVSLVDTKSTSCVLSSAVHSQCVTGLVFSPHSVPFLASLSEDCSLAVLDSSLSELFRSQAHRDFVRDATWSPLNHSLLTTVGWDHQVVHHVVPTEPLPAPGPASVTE

For the compound `O=C(NCC(O)CN1CCc2ccccc2C1)c1cccc(NC2COC2)c1` (stereo not shown) [Compound B50.], the IC50 under setting [1] lay within 101 to 1000 nM.
Regarding `O=C(COc1cccc2cccnc12)NC[C@@H](O)CN1Cc2ccccc2C1` [Compound E16.], the IC50 (Table E-2) is 1000 to 10000 nM.
Regarding `O=C(NCC(O)CN1CCc2ccccc2C1)c1ccc(-c2ccccn2)cc1` (stereo not shown) [Compound B13.], the IC50 under setting [1] was less than 100 nM.
The same measure, in the same setting: then `O=C(NCC(O)CN1CCc2ccccc2C1)c1cccc(-c2ccccn2)c1` (stereo not shown) [Compound B1.], with less than 100 nM.
On to `O=C1COCCN1CC(O)CN1CCc2ccccc2C1` (stereo not shown) [Compound C28], for which the IC50 under setting [2] lay within 1000 to 10000 nM.
For the compound `CC(Nc1cccc(C(=O)NCC(O)CN2CCc3ccccc3C2)c1)C1CCOCC1` (stereo not shown) [Compound B52.], the IC50 under setting [1] is 101 to 1000 nM.
For `O=C(NC1CCOCC1)C1CC(=O)N(CC(O)CN2CCc3ccccc3C2)C1` (stereo not shown) [Compound C32], under setting [2], the IC50 was greater than 10000 nM.
With `OC(COc1cccc(CNC2CCCCC2)c1)CN1CCc2ccccc2C1` (stereo not shown) [Compound D4], the IC50 (Table D-2) was 101 to 1000 nM.
As for `CN1CCN(c2cccc(C(=O)NCC(O)CN3CCc4ccccc4C3)c2)CC1` (stereo not shown) [Compound B36.], the IC50 under setting [1] is less than 100 nM.
Consider `O=C1CN(c2ccc(Cl)cc2)CCN1CC(O)CN1CCc2ccccc2C1` (stereo not shown) [Compound C7], for which the IC50 under setting [2] is less than 100 nM.
On to `OC(COc1cccc2ccc(N3CCOCC3)nc12)CN1CCc2ccccc2C1` (stereo not shown) [Compound D15], for which the IC50 (Table D-2) fell in the range of 1000 to 10000 nM.
Still for that read-out and setting: the value for `OC(COc1cccc(-c2ccncc2)c1)CN1CCc2ccccc2C1` (stereo not shown) [Compound D97] was 1000 to 10000 nM.
For `O=C(COc1ccccc1-c1cc[nH]n1)NCC(O)CN1Cc2ccccc2C1` (stereo not shown) [Compound E7.], the IC50 (Table E-2) was in the range of 101 to 1000 nM.
As for `CN(C)c1cccnc1OCC(=O)NCC(O)CN1CCc2ccccc2C1` (stereo not shown) [Compound A133], the IC50 under setting [3] was greater than 10000 nM.
With `O=C(COC1CCOCC1)NCC(O)CN1CCc2ccccc2C1` (stereo not shown) [Compound A41], under setting [3], the IC50 was 1000 to 10000 nM.
Still for that read-out and setting: then `Nc1ncccc1OCC(=O)NCC(O)CN1CCc2ccccc2C1` (stereo not shown) [Compound A145], with 1000 to 10000 nM.
With `Cn1cnc2nc(-c3cccc(OCC(O)CN4CCc5ccccc5C4)c3)ncc21` (stereo not shown) [Compound D165], where the note is “Table D-2”, the IC50 lay within 1000 to 10000 nM.
Turning to `O=C(NCC(O)CN1CCc2ccccc2C1)c1cccnc1` (stereo not shown) [Compound B18.], the IC50 under setting [1] is 101 to 1000 nM.
As for `Cc1cccc(N2CCN(CC(O)CN3CCc4ccccc4C3)C(=O)C2)c1` (stereo not shown) [Compound C3], under setting [2], the IC50 fell in the range of 10000 to 50000 nM.
As for `Cc1cccc2c1CCN(CC(O)COc1cccc(-c3ccc4ncn(C)c4c3)c1)C2` (stereo not shown) [Compound D213], the IC50 (Table D-2) was 1000 to 10000 nM.
The same measure, in the same setting: the value for `OC(COC1CCCC1)CN1CCc2ccccc2C1` (stereo not shown) [Compound D302] was 1000 to 10000 nM.
Turning to `OC(COc1cccc(CNC2CCCC2)c1)CN1Cc2ccccc2C1` (stereo not shown) [Compound E20.], where the note is “Table E-2”, the half-maximal inhibitory concentration (IC50) lay in the range of 1000 to 10000 nM.
On to `OC(COc1cccc(CN2CCCCC2)c1)CN1CCc2ccccc2C1` (stereo not shown) [Compound D14], for which the IC50 (Table D-2) was in the range of 1000 to 10000 nM.
Same read-out and setting: the value for `OC(COc1cccc(-c2cc(Cl)cc(C(F)(F)F)c2)c1)CN1CCc2ccccc2C1` (stereo not shown) [Compound D128] was 1000 to 10000 nM.
Consider `CN1CCC(c2ccccc2OCC(=O)NCC(O)CN2CCc3ccccc3C2)C1` (stereo not shown) [Compound A136], for which the concentration for half-maximal inhibition (IC50) under setting [3] was in the range of 1000 to 10000 nM.
`O=C1CC(c2ccccc2)CCN1C[C@H](O)CN1CCc2ccccc2C1` (stereo partly shown) [Compound C16]: the IC50 under setting [2] was 1000 to 10000 nM.
With `OC(COc1cccc(-c2ccc(C(F)(F)F)cc2)c1)CN1CCc2ccccc2C1` (stereo not shown) [Compound D133], under “Table D-2”, the IC50 is 1000 to 10000 nM.
Regarding `CC(=O)Nc1ccc(C(=O)NCC(O)CN2CCc3ccccc3C2)cc1` (stereo not shown) [Compound B23.], the IC50 under setting [1] lay in the range of 101 to 1000 nM.
On the same count and under the same terms, the value for `O=C(NCC(O)CN1CCc2ccccc2C1)c1ccc(OC2CCOCC2)cc1` (stereo not shown) [Compound B58.] was less than 100 nM.
Turning to `Oc1ccc(-c2cccc(OCC(O)CN3CCc4ccccc4C3)c2)cc1F` (stereo not shown) [Compound D70], under “Table D-2”, the IC50 lay in the range of 1000 to 10000 nM.
Same read-out and setting: the value for `Cn1cc(-c2cccc(OCC(O)CN3CCc4ccccc4C3)c2)cn1` (stereo not shown) [Compound D44] was 1000 to 10000 nM.
